# The kinase profiling compilation of Christmann-Franck et al. (2016)
# Experiments:
# Test in all cases: KINOMEscan competition binding
# Conditions in all cases: compound 10.0 µM
# ACVR1B (human) = ACVR1B (human) (UniProt P36896)
# ADCK4 (human) = ADCK4 (human) (UniProt Q96D53)
# AURKA (human) = AURKA (human) (UniProt O14965)
# CDK16 (human) = CDK16 (human) (UniProt Q00536)
# CDK7 (human) = CDK7 (human) (UniProt P50613)
# CLK1 (human) = CLK1 (human) (UniProt P49759)
# CLK3 (human) = CLK3 (human) (UniProt P49761)
# CSNK1E (human) = CSNK1E (human) (UniProt P49674)
# DCLK1 (human) = DCLK1 (human) (UniProt O15075)
# DDR2 (human) = DDR2 (human) (UniProt Q16832)
# EPHA2 (human) = EPHA2 (human) (UniProt P29317)
# EPHA3 (human) = EPHA3 (human) (UniProt P29320)
# EPHB1 (human) = EPHB1 (human) (UniProt P54762)
# ERBB2 (human) = ERBB2 (human) (UniProt P04626)
# FER (human) = FER (human) (UniProt P16591)
# FGFR2 (human) = FGFR2 (human) (UniProt P21802)
# FLT4 (human) = FLT4 (human) (UniProt P35916)
# [1] = test system: KIT (human), P10721 [V559D]
# MAP4K2 (human) = MAP4K2 (human) (UniProt Q12851)
# MAPK7 (human) = MAPK7 (human) (UniProt Q13164)
# MAPK8 (human) = MAPK8 (human) (UniProt P45983)
# MKNK2 (human) = MKNK2 (human) (UniProt Q9HBH9)
# MST1R (human) = MST1R (human) (UniProt Q04912)
# MUSK (human) = MUSK (human) (UniProt O15146)
# PDPK1 (human) = PDPK1 (human) (UniProt O15530)
# PLK3 (human) = PLK3 (human) (UniProt Q9H4B4)
# PRKAA2 (human) = PRKAA2 (human) (UniProt P54646)
# PRKACB (human) = PRKACB (human) (UniProt P22694)
# PRKD3 (human) = PRKD3 (human) (UniProt O94806)
# RPS6KA1 KD2 (human) = RPS6KA1 KD2 (human) (UniProt Q15418)
# RPS6KA2 KD2 (human) = RPS6KA2 KD2 (human) (UniProt Q15349)
# SGK110 (human) = SGK110 (human) (UniProt P0C264)
# SIK2 (human) = SIK2 (human) (UniProt Q9H0K1)
# STK16 (human) = STK16 (human) (UniProt O75716)
# STK17A (human) = STK17A (human) (UniProt Q9UEE5)
# TESK1 (human) = TESK1 (human) (UniProt Q15569)
# TNNI3K (human) = TNNI3K (human) (UniProt Q59H18)
# ULK1 (human) = ULK1 (human) (UniProt O75385)
# ULK2 (human) = ULK2 (human) (UniProt Q8IYT8)
# WEE2 (human) = WEE2 (human) (UniProt P0C1S8)
# WEE2 (human), sequence (P0C1S8 whole entry, looked up): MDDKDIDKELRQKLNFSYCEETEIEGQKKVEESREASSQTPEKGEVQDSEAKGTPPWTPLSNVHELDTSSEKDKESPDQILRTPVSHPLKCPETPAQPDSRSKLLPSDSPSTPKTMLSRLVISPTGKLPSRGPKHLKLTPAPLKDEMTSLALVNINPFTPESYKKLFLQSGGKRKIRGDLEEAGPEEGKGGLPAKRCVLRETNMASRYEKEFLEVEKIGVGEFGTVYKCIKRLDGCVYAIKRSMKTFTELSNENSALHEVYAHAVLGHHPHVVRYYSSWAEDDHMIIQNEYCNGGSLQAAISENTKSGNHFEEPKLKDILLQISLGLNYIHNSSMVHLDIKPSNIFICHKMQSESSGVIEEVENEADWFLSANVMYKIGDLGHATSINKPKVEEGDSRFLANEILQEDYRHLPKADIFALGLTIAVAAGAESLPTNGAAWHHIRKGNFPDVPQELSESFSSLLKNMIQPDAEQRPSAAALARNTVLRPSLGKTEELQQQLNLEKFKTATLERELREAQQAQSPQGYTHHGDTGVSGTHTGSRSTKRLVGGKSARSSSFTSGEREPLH
# CLK3 (human), sequence (P49761 whole entry, looked up): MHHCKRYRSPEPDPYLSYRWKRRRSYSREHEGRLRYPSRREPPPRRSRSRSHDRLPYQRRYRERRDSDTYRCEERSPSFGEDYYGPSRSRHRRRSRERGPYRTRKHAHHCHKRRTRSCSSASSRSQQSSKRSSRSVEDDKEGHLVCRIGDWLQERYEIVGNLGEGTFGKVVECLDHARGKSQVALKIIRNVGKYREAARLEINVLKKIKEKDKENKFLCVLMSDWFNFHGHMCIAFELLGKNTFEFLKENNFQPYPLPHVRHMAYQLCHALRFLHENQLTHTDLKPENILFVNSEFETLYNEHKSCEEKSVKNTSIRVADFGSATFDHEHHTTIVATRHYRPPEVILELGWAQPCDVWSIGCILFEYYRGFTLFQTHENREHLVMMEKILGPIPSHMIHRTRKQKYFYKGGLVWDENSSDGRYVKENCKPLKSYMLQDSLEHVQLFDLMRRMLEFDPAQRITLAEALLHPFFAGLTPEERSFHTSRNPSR
# DCLK1 (human), sequence (O15075 whole entry, looked up): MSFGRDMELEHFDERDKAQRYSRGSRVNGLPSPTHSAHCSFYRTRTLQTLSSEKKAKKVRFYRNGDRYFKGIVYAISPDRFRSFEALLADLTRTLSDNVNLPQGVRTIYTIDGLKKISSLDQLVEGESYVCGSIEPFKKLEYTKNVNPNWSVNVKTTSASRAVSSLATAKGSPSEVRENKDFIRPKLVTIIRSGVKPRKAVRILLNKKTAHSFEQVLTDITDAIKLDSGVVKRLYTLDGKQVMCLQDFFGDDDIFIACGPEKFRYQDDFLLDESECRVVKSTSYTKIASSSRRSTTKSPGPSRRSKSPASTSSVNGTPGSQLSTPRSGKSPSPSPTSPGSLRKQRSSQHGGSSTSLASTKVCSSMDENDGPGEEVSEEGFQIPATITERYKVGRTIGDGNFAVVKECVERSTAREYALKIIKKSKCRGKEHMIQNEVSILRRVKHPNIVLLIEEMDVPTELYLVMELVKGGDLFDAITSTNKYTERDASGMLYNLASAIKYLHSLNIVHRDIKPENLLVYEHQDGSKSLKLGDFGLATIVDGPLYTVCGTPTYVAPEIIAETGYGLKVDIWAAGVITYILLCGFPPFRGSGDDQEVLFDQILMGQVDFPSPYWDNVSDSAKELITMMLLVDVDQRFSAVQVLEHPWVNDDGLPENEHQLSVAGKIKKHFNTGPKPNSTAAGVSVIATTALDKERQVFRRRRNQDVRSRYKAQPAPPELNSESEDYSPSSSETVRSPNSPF
# PDPK1 (human), sequence (O15530 whole entry, looked up): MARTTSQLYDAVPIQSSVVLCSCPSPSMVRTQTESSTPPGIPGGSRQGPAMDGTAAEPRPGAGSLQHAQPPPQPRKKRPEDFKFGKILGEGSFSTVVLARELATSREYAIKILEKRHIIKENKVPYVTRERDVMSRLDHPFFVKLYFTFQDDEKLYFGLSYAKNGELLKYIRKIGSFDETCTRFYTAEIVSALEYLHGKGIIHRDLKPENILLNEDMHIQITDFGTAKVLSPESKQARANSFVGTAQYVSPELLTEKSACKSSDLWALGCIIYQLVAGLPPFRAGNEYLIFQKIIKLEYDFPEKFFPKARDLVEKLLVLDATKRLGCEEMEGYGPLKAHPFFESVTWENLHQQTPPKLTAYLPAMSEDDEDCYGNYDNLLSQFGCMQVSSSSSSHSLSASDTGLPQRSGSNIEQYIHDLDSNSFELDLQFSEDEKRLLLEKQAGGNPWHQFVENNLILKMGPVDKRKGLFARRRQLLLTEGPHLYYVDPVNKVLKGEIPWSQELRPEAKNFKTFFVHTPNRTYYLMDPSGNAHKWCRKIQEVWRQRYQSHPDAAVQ
# CDK16 (human), sequence (Q00536 whole entry, looked up): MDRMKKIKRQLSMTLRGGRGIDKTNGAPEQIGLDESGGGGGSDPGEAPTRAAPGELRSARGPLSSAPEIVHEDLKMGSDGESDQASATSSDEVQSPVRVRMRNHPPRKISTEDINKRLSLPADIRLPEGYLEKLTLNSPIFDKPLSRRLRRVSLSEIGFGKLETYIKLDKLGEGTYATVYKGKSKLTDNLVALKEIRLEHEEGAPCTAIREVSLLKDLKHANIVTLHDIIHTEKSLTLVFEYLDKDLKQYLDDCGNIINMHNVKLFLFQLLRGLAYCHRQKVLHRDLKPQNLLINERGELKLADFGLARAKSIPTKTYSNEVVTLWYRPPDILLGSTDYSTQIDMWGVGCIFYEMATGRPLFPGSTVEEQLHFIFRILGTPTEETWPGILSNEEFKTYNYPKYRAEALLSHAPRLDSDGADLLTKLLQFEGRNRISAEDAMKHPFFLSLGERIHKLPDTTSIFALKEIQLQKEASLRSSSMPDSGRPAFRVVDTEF
# SIK2 (human), sequence (Q9H0K1 whole entry, looked up): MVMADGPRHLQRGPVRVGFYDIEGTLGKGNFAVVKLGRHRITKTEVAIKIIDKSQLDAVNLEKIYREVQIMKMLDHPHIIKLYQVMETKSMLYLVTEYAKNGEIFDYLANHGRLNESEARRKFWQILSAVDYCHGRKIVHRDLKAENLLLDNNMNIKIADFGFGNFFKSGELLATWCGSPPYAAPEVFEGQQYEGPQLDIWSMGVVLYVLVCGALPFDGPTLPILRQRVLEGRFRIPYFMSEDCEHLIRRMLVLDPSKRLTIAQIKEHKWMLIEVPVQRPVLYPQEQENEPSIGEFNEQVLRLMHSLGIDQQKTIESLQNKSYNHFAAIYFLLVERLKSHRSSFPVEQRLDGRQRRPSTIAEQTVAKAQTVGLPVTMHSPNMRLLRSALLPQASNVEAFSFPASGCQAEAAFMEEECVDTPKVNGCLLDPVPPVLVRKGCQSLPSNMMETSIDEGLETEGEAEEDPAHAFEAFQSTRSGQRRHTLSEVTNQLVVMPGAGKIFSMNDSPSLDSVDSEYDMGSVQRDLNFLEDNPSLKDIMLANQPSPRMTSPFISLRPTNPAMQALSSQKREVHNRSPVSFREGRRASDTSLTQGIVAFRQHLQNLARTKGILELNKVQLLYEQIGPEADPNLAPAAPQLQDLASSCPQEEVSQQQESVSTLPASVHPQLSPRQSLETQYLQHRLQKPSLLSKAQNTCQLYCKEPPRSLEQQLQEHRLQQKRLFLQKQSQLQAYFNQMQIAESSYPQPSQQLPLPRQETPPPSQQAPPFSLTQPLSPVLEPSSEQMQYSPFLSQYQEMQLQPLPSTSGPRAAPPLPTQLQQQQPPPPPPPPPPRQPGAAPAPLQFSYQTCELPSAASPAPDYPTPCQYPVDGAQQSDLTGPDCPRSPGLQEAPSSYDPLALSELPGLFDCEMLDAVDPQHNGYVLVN
# ULK2 (human), sequence (Q8IYT8 whole entry, looked up): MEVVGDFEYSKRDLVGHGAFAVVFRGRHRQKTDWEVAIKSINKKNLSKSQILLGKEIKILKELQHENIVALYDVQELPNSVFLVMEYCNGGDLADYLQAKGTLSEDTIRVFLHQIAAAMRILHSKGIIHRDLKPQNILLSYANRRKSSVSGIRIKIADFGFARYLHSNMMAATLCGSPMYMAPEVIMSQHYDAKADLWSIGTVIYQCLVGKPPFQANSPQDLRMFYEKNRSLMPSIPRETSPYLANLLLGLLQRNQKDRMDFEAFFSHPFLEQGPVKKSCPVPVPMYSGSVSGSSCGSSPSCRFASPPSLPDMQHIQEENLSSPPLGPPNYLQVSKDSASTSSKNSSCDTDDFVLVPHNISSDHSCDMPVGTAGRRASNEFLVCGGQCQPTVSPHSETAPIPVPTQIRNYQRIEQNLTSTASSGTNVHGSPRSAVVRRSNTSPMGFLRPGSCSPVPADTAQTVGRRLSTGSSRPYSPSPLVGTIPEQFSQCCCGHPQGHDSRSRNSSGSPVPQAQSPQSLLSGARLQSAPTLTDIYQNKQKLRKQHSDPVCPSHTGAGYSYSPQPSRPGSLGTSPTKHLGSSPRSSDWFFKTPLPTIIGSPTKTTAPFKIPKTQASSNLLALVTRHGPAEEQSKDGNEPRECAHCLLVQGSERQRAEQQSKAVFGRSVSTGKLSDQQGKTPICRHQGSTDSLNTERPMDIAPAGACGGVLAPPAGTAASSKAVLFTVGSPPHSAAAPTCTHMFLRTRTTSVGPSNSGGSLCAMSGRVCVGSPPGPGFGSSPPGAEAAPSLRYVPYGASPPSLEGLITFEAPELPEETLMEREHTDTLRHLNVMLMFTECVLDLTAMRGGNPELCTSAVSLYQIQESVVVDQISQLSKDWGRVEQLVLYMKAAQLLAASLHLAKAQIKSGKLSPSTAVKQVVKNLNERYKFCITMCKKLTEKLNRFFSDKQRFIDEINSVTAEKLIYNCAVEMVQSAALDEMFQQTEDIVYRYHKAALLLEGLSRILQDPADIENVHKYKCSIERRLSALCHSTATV
SMILES,"kinase still bound, per cent of control (ACVR1B (human)) [%]","kinase still bound, per cent of control (ADCK4 (human)) [%]","kinase still bound, per cent of control (AURKA (human)) [%]","kinase still bound, per cent of control (CDK16 (human)) [%]","kinase still bound, per cent of control (CDK7 (human)) [%]","kinase still bound, per cent of control (CLK1 (human)) [%]","kinase still bound, per cent of control (CLK3 (human)) [%]","kinase still bound, per cent of control (CSNK1E (human)) [%]","kinase still bound, per cent of control (DCLK1 (human)) [%]","kinase still bound, per cent of control (DDR2 (human)) [%]","kinase still bound, per cent of control (EPHA2 (human)) [%]","kinase still bound, per cent of control (EPHA3 (human)) [%]","kinase still bound, per cent of control (EPHB1 (human)) [%]","kinase still bound, per cent of control (ERBB2 (human)) [%]","kinase still bound, per cent of control (FER (human)) [%]","kinase still bound, per cent of control (FGFR2 (human)) [%]","kinase still bound, per cent of control (FLT4 (human)) [%]","kinase still bound, per cent of control [1] [%]","kinase still bound, per cent of control (MAP4K2 (human)) [%]","kinase still bound, per cent of control (MAPK7 (human)) [%]",also measured
C=CC(=O)Nc1cccc(Oc2nc(Nc3ccc(N4CCN(C)CC4)cc3OC)ncc2Cl)c1,100,100,28,100,35,13,100,100,1,100,100,100,100,1.8,11,100,100,26,100,4,"kinase still bound, per cent of control (MAPK8 (human)): 17%; kinase still bound, per cent of control (MKNK2 (human)): 2%; kinase still bound, per cent of control (MST1R (human)): 100%; kinase still bound, per cent of control (MUSK (human)): 100%; kinase still bound, per cent of control (PDPK1 (human)): 100%; kinase still bound, per cent of control (PLK3 (human)): 100%; kinase still bound, per cent of control (PRKAA2 (human)): 100%; kinase still bound, per cent of control (PRKACB (human)): 100%; kinase still bound, per cent of control (PRKD3 (human)): 10%; kinase still bound, per cent of control (RPS6KA1 KD2 (human)): 100%; kinase still bound, per cent of control (RPS6KA2 KD2 (human)): 28%; kinase still bound, per cent of control (SGK110 (human)): 100%; kinase still bound, per cent of control (SIK2 (human)): 20%; kinase still bound, per cent of control (STK16 (human)): 27%; kinase still bound, per cent of control (STK17A (human)): 1.6%; kinase still bound, per cent of control (TESK1 (human)): 100%; kinase still bound, per cent of control (TNNI3K (human)): 100%; kinase still bound, per cent of control (ULK1 (human)): 1.6%; kinase still bound, per cent of control (ULK2 (human)): 2%; kinase still bound, per cent of control (WEE2 (human)): 100%"
Cc1ccc(NC(=O)c2cccc(C(C)(C)C#N)c2)cc1Nc1ccc2ncn(C)c(=O)c2c1,97,100,100,100,100,100,100,100,97,21,3.2,5.1,1,72,100,55,0.15,0.05,62,100,"kinase still bound, per cent of control (MAPK8 (human)): 100%; kinase still bound, per cent of control (MKNK2 (human)): 99%; kinase still bound, per cent of control (MST1R (human)): 100%; kinase still bound, per cent of control (MUSK (human)): 92%; kinase still bound, per cent of control (PDPK1 (human)): 100%; kinase still bound, per cent of control (PLK3 (human)): 100%; kinase still bound, per cent of control (PRKAA2 (human)): 100%; kinase still bound, per cent of control (PRKACB (human)): 100%; kinase still bound, per cent of control (PRKD3 (human)): 88%; kinase still bound, per cent of control (RPS6KA1 KD2 (human)): 87%; kinase still bound, per cent of control (RPS6KA2 KD2 (human)): 84%; kinase still bound, per cent of control (SGK110 (human)): 100%; kinase still bound, per cent of control (SIK2 (human)): 77%; kinase still bound, per cent of control (STK16 (human)): 83%; kinase still bound, per cent of control (STK17A (human)): 100%; kinase still bound, per cent of control (TESK1 (human)): 100%; kinase still bound, per cent of control (TNNI3K (human)): 15%; kinase still bound, per cent of control (ULK1 (human)): 94%; kinase still bound, per cent of control (ULK2 (human)): 100%; kinase still bound, per cent of control (WEE2 (human)): 100%"
